According to ChEMBL document CHEMBL1201861, “Genomics of Drug Sensitity in Cancer screening data, Wellcome Trust Sanger Institute”:

Columns and labels:
Test in all cases: cells
HT = assay type: functional, cell-based, Homo sapiens
Description: SANGER: Inhibition of human HT cell growth in a cell viability assay.

NCI-H720 = assay type: functional, cell-based, Homo sapiens;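 note: growth inhibition of human NCI-H720 cells determined by a cell viability assay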
Description: SANGER: Inhibition of human NCI-H720 cell growth in a cell viability assay.

QIMR-WIL = assay type: functional, cell-based, Homo sapiens;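 note: growth inhibition of QIMR-WIL cells, read out with a cell viability assay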
Description: SANGER: Inhibition of human QIMR-WIL cell growth in a cell viability assay.

MV4-11 = assay type: functional, cell-based, Homo sapiens, MV-4-11;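 note: cell viability readout measuring growth inhibition of human MV-4-11 cells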
Description: SANGER: Inhibition of human MV-4-11 cell growth in a cell viability assay.

NCI-H1838 = assay type: functional, cell-based, Homo sapiens;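 note: growth inhibition of NCI-H1838 cells, determined with a cell viability readout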
Description: SANGER: Inhibition of human NCI-H1838 cell growth in a cell viability assay.

DMS-114 = assay type: functional, cell-based, Homo sapiens
RXF 393 = assay type: functional, cell-based, Homo sapiens;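 note: growth inhibition of human RXF 393 cells, read out with a cell viability assay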
Description: SANGER: Inhibition of human RXF393 cell growth in a cell viability assay.

IST-SL1 = assay type: functional, cell-based, Homo sapiens;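 note: growth inhibition of human IST-SL1 cells, read out with a cell viability assay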
Description: SANGER: Inhibition of human IST-SL1 cell growth in a cell viability assay.

OVCAR-4 = assay type: functional, cell-based, Homo sapiens;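 note: growth inhibition of human OVCAR-4 cells, measured with a cell viability assay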
Description: SANGER: Inhibition of human OVCAR-4 cell growth in a cell viability assay.

UACC-257 = assay type: functional, cell-based, Homo sapiens
Description: SANGER: Inhibition of human UACC-257 cell growth in a cell viability assay.

SK-LMS-1 = assay type: functional, cell-based, Homo sapiens;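 note: growth inhibition of human SK-LMS-1 cells, read out with a cell viability assay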
Description: SANGER: Inhibition of human SK-LMS-1 cell growth in a cell viability assay.

KG-1 = assay type: functional, cell-based, Homo sapiens;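 note: growth inhibition of KG-1 cells, read out by a cell viability assay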
Description: SANGER: Inhibition of human KG-1 cell growth in a cell viability assay.

KM12 = assay type: functional, cell-based, Homo sapiens;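 note: KM12 cell growth inhibition, read out with a cell viability assay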
Description: SANGER: Inhibition of human KM12 cell growth in a cell viability assay.

K5 = assay type: functional, cell-based, Homo sapiens
Description: SANGER: Inhibition of human K5 cell growth in a cell viability assay.

DB = assay type: functional, cell-based, Homo sapiens
Description: SANGER: Inhibition of human DB cell growth in a cell viability assay.

SNB-75 = assay type: functional, cell-based, Homo sapiens;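 note: cell viability assay measuring growth inhibition of human SNB-75 cells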
Description: SANGER: Inhibition of human SNB75 cell growth in a cell viability assay.

MC116 = assay type: functional, cell-based, Homo sapiens;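 note: growth inhibition of MC116 cells, read out with a cell viability assay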
Description: SANGER: Inhibition of human MC116 cell growth in a cell viability assay.

LB771-HNC = assay type: functional, cell-based, Homo sapiens;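 note: growth inhibition of LB771-HNC human cells, read out with a cell viability assay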
Description: SANGER: Inhibition of human LB771-HNC cell growth in a cell viability assay.

ES4 = assay type: functional, cell-based, Homo sapiens;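 note: growth inhibition of human ES4 cells, read out by a cell viability assay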
Description: SANGER: Inhibition of human ES4 cell growth in a cell viability assay.

CAS-1 = assay type: functional, cell-based, Homo sapiens;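 note: growth inhibition of CAS-1 cells, measured with a cell viability assay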
Description: SANGER: Inhibition of human CAS-1 cell growth in a cell viability assay.

Calu-6 = assay type: functional, cell-based, Homo sapiens;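 note: growth of human Calu-6 cells, read out by a cell viability assay, IC50 marking inhibition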
Description: SANGER: Inhibition of human Calu-6 cell growth in a cell viability assay.

AM-38 = assay type: functional, cell-based, Homo sapiens;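 note: growth inhibition of AM-38 cells of human origin, read out by a cell viability assay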
Description: SANGER: Inhibition of human AM-38 cell growth in a cell viability assay.

LU-134-A = assay type: functional, cell-based, Homo sapiens
Description: SANGER: Inhibition of human LU-134-A cell growth in a cell viability assay.

TGBC24TKB = assay type: functional, cell-based, Homo sapiens;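 note: growth inhibition of human TGBC24TKB cells, read out with a cell viability assay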
Description: SANGER: Inhibition of human TGBC24TKB cell growth in a cell viability assay.

TE-9 = assay type: functional, cell-based, Homo sapiens;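 note: cell growth inhibition, measured with a cell viability readout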
Description: SANGER: Inhibition of human TE-9 cell growth in a cell viability assay.

NOMO-1 = assay type: functional, cell-based, Homo sapiens;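 note: growth inhibition of human NOMO-1 cells measured by a cell viability assay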
Description: SANGER: Inhibition of human NOMO-1 cell growth in a cell viability assay.

TGBC1TKB = assay type: functional, cell-based, Homo sapiens;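 note: growth inhibition of TGBC1TKB cells, read out by a cell viability assay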
Description: SANGER: Inhibition of human TGBC1TKB cell growth in a cell viability assay.

NCI-H446 = assay type: functional, cell-based, Homo sapiens;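 note: growth inhibition of NCI-H446 cells determined by a cell viability assay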
Description: SANGER: Inhibition of human NCI-H446 cell growth in a cell viability assay.

ES3 = assay type: functional, cell-based, Homo sapiens;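 note: growth inhibition of ES3 cells, read out with a cell viability assay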
Description: SANGER: Inhibition of human ES3 cell growth in a cell viability assay.

DSH1 = assay type: functional, cell-based, Homo sapiens;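 note: growth inhibition of human DSH1 cells, measured with a cell viability readout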
Description: SANGER: Inhibition of human DSH1 cell growth in a cell viability assay.

HCC2157 = assay type: functional, cell-based, Homo sapiens;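 note: growth inhibition of the cancer cell line, read out as cell viability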
Description: SANGER: Inhibition of human HCC2157 cell growth in a cell viability assay.

SNU1 = assay type: functional, cell-based, Homo sapiens;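 note: growth inhibition of human NCI-SNU-1 cells, measured with a cell viability assay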
Description: SANGER: Inhibition of human NCI-SNU-1 cell growth in a cell viability assay.

C2BBe1 = assay type: functional, cell-based, Homo sapiens;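 note: growth inhibition of C2BBe1 cells, read out through a viability assay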
Description: SANGER: Inhibition of human C2BBe1 cell growth in a cell viability assay.

EW-24 = assay type: functional, cell-based, Homo sapiens;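 note: human EW-24 cancer cell line, growth inhibition read out via a cell viability assay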
Description: SANGER: Inhibition of human EW-24 cell growth in a cell viability assay.

SW 962 = assay type: functional, cell-based, Homo sapiens;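 note: growth inhibition of human SW962 cells, read out by a cell viability assay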
Description: SANGER: Inhibition of human SW962 cell growth in a cell viability assay.

HH = assay type: functional, cell-based, Homo sapiens
Description: SANGER: Inhibition of human HH cell growth in a cell viability assay.

LOX IMVI = assay type: functional, cell-based, Homo sapiens
Description: SANGER: Inhibition of human LOXIMVI cell growth in a cell viability assay.

MS-1 = assay type: functional, cell-based, Homo sapiens
Description: SANGER: Inhibition of human MS-1 cell growth in a cell viability assay.

CCRF-CEM = assay type: functional, cell-based, Homo sapiens;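 note: inhibition of CCRF-CEM cell growth, measured by a cell viability assay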
Description: SANGER: Inhibition of human CCRF-CEM cell growth in a cell viability assay.

TE-10 = assay type: functional, cell-based, Homo sapiens;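 note: growth inhibition of TE-10 cells, measured by a cell viability assay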
Description: SANGER: Inhibition of human TE-10 cell growth in a cell viability assay.

OMC-1 = assay type: functional, cell-based, Homo sapiens;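 note: growth inhibition of the OMC-1 cell line, measured by a cell viability assay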
Description: SANGER: Inhibition of human OMC-1 cell growth in a cell viability assay.

NCI-H1648 = assay type: functional, cell-based, Homo sapiens;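 note: cell viability assay measuring inhibition of NCI-H1648 cell growth, from the Sanger screening data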
Description: SANGER: Inhibition of human NCI-H1648 cell growth in a cell viability assay.

NCI-H1581 = assay type: functional, cell-based, Homo sapiens;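 note: cell growth inhibition read out by a viability assay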
Description: SANGER: Inhibition of human NCI-H1581 cell growth in a cell viability assay.

L-428 = assay type: functional, cell-based, Homo sapiens
Description: SANGER: Inhibition of human L-428 cell growth in a cell viability assay.

SW872 = assay type: functional, cell-based, Homo sapiens;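 note: growth inhibition of SW872 cells, read out by a viability assay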
Description: SANGER: Inhibition of human SW872 cell growth in a cell viability assay.

KU812 cell line = assay type: functional, cell-based, Homo sapiens;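 note: growth inhibition of KU812 cells, read out with a cell viability assay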
Description: SANGER: Inhibition of human KU812 cell growth in a cell viability assay.

EC-GI-10 = assay type: functional, cell-based, Homo sapiens
Description: SANGER: Inhibition of human EC-GI-10 cell growth in a cell viability assay.

ETK-1 = assay type: functional, cell-based, Homo sapiens;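 note: growth inhibition of human ETK-1 cells, read out with a cell viability assay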
Description: SANGER: Inhibition of human ETK-1 cell growth in a cell viability assay.

SF-539 = assay type: functional, cell-based, Homo sapiens;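 note: Read-out is a cell viability assay, with IC50 reflecting inhibition of cell growth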
Description: SANGER: Inhibition of human SF539 cell growth in a cell viability assay.

Molecule: Cc1cc([N+](=O)[O-])ccc1NS(=O)(=O)c1cc(Cl)ccc1Cl
- IC50 (HT; Homo sapiens, HT): 2.75 µM
- IC50 (NCI-H720; Homo sapiens, NCI-H720): > 32 µM
- IC50 (QIMR-WIL; Homo sapiens, QIMR-WIL): 6.82 µM
- IC50 (MV4-11; Homo sapiens, MV4-11): 5.23 µM
- IC50 (NCI-H1838; Homo sapiens, NCI-H1838): > 32 µM
- IC50 (DMS-114; Homo sapiens, DMS-114): > 32 µM
- IC50 (RXF 393; Homo sapiens, RXF 393): > 32 µM
- IC50 (IST-SL1; Homo sapiens, IST-SL1): 24.4 µM
- IC50 (OVCAR-4; Homo sapiens, OVCAR-4): 4.61 µM
- IC50 (UACC-257; Homo sapiens, UACC-257): 3.84 µM
- IC50 (SK-LMS-1; Homo sapiens, SK-LMS-1): 3.1 µM
- IC50 (KG-1; Homo sapiens, KG-1): 7 µM
- IC50 (KM12; Homo sapiens, KM12): 5.99 µM
- IC50 (K5; Homo sapiens, K5): 6.43 µM
- IC50 (DB; Homo sapiens, DB): 8.17 µM
- IC50 (SNB-75; Homo sapiens, SNB-75): > 32 µM
- IC50 (MC116; Homo sapiens, MC116): 3.14 µM
- IC50 (LB771-HNC; Homo sapiens, LB771-HNC): 2.24 µM
- IC50 (ES4; Homo sapiens, ES4): 7.57 µM
- IC50 (CAS-1; Homo sapiens, CAS-1): 8.88 µM
- IC50 (Calu-6; Homo sapiens, Calu-6): 0.831 µM
- IC50 (AM-38; Homo sapiens, AM-38): 18.8 µM
- IC50 (LU-134-A; Homo sapiens, LU-134-A): > 32 µM
- IC50 (TGBC24TKB; Homo sapiens, TGBC24TKB): 5.2 µM
- IC50 (TE-9; Homo sapiens, TE-9): 2.69 µM
- IC50 (NOMO-1; Homo sapiens, NOMO-1): 6.21 µM
- IC50 (TGBC1TKB; Homo sapiens, TGBC1TKB): 8.37 µM
- IC50 (NCI-H446; Homo sapiens, NCI-H446): > 32 µM
- IC50 (ES3; Homo sapiens, ES3): 7.72 µM
- IC50 (DSH1; Homo sapiens, DSH1): 0.949 µM
- IC50 (HCC2157; Homo sapiens, HCC2157): 8.76 µM
- IC50 (SNU1; Homo sapiens, SNU1): 10.8 µM
- IC50 (C2BBe1; Homo sapiens, C2BBe1): 25.4 µM
- IC50 (EW-24; Homo sapiens, EW-24): > 32 µM
- IC50 (SW 962; Homo sapiens, SW 962): 4.68 µM
- IC50 (HH; Homo sapiens, HH): 15.2 µM
- IC50 (LOX IMVI; Homo sapiens, LOX IMVI): 13.9 µM
- IC50 (MS-1; Homo sapiens, MS-1): 16.4 µM
- IC50 (CCRF-CEM; Homo sapiens, CCRF-CEM): 7.88 µM
- IC50 (TE-10; Homo sapiens, TE-10): 4 µM
- IC50 (OMC-1; Homo sapiens, OMC-1): 8.57 µM
- IC50 (NCI-H1648; Homo sapiens, NCI-H1648): 2.04 µM
- IC50 (NCI-H1581; Homo sapiens, NCI-H1581): 9.37 µM
- IC50 (L-428; Homo sapiens, L-428): > 32 µM
- IC50 (SW872; Homo sapiens, SW872): 4.95 µM
- IC50 (KU812 cell line; Homo sapiens, KU812): 7.2 µM
- IC50 (EC-GI-10; Homo sapiens, EC-GI-10): 11.3 µM
- IC50 (ETK-1; Homo sapiens, ETK-1): 6.35 µM
- IC50 (SF-539; Homo sapiens, SF-539): 21 µM

Molecule: BLEOMYCIN
- IC50 (HT; ht): 5.56 µM
- IC50 (NCI-H720; nci-h720): 103 µM
- IC50 (QIMR-WIL; qimr-wil): 0.637 µM
- IC50 (MV4-11; mv-4-11): 0.00991 µM
- IC50 (NCI-H1838; nci-h1838): 24.5 µM
- IC50 (DMS-114; dms-114): 6.79 µM
- IC50 (RXF 393; rxf 393): 176 µM
- IC50 (IST-SL1; ist-sl1): 54.6 µM
- IC50 (OVCAR-4; ovcar-4): 4.41 µM
- IC50 (UACC-257; uacc-257): 234 µM
- IC50 (SK-LMS-1; sk-lms-1): 2.66 µM
- IC50 (KG-1; kg-1): 0.131 µM
- IC50 (KM12; km12): 9.19 µM
- IC50 (K5; k5): 72.4 µM
- IC50 (DB; db): 5.12 µM
- IC50 (SNB-75; snb-75): 1.61 µM
- IC50 (MC116; mc116): 2.11 µM
- IC50 (LB771-HNC; lb771-hnc): 209 µM
- IC50 (ES4; es4): 0.0383 µM
- IC50 (CAS-1; cas-1): 81 µM
- IC50 (Calu-6; calu-6): 7.67 µM
- IC50 (AM-38; am-38): 4.94 µM
- IC50 (LU-134-A; lu-134-a): 41.8 µM
- IC50 (TGBC24TKB; tgbc24tkb): 204 µM
- IC50 (TE-9; te-9): 34 µM
- IC50 (NOMO-1; nomo-1): 4.2 µM
- IC50 (TGBC1TKB; tgbc1tkb): 74.1 µM
- IC50 (NCI-H446; nci-h446): 18.9 µM
- IC50 (ES3; es3): 1.61 µM
- IC50 (DSH1; dsh1): 155 µM
- IC50 (HCC2157; hcc2157): 93.4 µM
- IC50 (SNU1; snu1): 2.84 µM
- IC50 (C2BBe1; c2bbe1): 91.8 µM
- IC50 (EW-24; ew-24): 95.3 µM
- IC50 (SW 962; sw 962): 1.95 µM
- IC50 (HH; hh): 2.29 µM
- IC50 (LOX IMVI; lox imvi): 0.452 µM
- IC50 (MS-1; ms-1): 156 µM
- IC50 (CCRF-CEM; ccrf-cem): 0.0787 µM
- IC50 (TE-10; te-10): 0.783 µM
- IC50 (OMC-1; omc-1): 11.9 µM
- IC50 (NCI-H1648; nci-h1648): 20.3 µM
- IC50 (NCI-H1581; nci-h1581): 110 µM
- IC50 (L-428; l-428): 52.3 µM
- IC50 (SW872; sw872): 3.45 µM
- IC50 (KU812 cell line; ku812): 68 µM
- IC50 (EC-GI-10; ec-gi-10): 305 µM
- IC50 (ETK-1; etk-1): 0.0805 µM
- IC50 (SF-539; sf-539): 0.393 µM
